{
  "source": "ChEMBL document CHEMBL6134922",
  "about": "(ACS Med Chem Lett, 2025)",
  "key": {"[1]": {"assay": "Plasma protein binding in mouse assessed as unbound fraction at 5 uM incubated for 6 hrs by equilibrium dialysis based HPLC analysis", "type": "ADME, cell-free"}, "[2]": {"assay": "Plasma protein binding in human assessed as unbound fraction at 5 uM incubated for 6 hrs by equilibrium dialysis based HPLC analysis", "type": "ADME, cell-free"}, "[3]": {"assay": "Plasma protein binding in human assessed as percent bound at 5 uM incubated for 6 hrs by equilibrium dialysis based HPLC analysis"}, "[4]": {"assay": "Plasma protein binding in mouse assessed as bound fraction at 5 uM incubated for 6 hrs by equilibrium dialysis based HPLC analysis"}, "[5]": {"assay": "Unbound fraction in mouse brain at 5 uM incubated for 6 hrs by equilibrium dialysis based HPLC analysis", "type": "ADME, tissue-based"}, "[6]": {"assay": "Cmax in CD-1 mouse at 10 mg/kg, ip measured up to 24 hrs by LC-MS/MS analysis", "type": "ADME, organism-based", "details": "in vivo"}, "[7]": {"assay": "Unbound fraction in rat brain at 5 uM incubated for 6 hrs by equilibrium dialysis based HPLC analysis", "type": "ADME, tissue-based"}, "[8]": {"assay": "AUC in CD-1 mouse at 10 mg/kg, po measured up to 24 hrs by LC-MS/MS analysis", "type": "ADME, organism-based", "details": "in vivo"}, "[9]": {"assay": "AUC in CD-1 mouse at 10 mg/kg, ip measured up to 24 hrs by LC-MS/MS analysis", "type": "ADME, organism-based", "details": "in vivo"}, "[10]": {"assay": "Cmax in CD-1 mouse at 10 mg/kg, po measured up to 24 hrs by LC-MS/MS analysis", "type": "ADME, organism-based", "details": "in vivo"}},
  "data": [
    {"smiles": "CC(C)(C)OC(=O)Nc1ccc(Cl)c(C(=O)Nc2ncc(C#Cc3ccccc3)cc2Cl)c1", "values": [
      {"measurement": "fraction unbound at 6 h, 5 µM", "setting": "[1]", "value": "> 0.999"}
    ]},
    {"smiles": "Cc1cc(C#Cc2cccc(F)c2)cnc1NC(=O)c1cc(NC(=O)OC(C)(C)C)ccc1Cl", "values": [
      {"measurement": "fraction unbound at 6 h, 5 µM", "setting": "[2]", "value": "> 0.999"},
      {"measurement": "fraction unbound at 6 h, 5 µM", "setting": "[1]", "value": "> 0.999"}
    ]},
    {"smiles": "Cc1cc(C#Cc2ccccc2)cnc1NC(=O)c1cc(NC(=O)OC(C)(C)C)ccc1Cl", "values": [
      {"measurement": "plasma protein binding (% bound)", "setting": "[3]", "value": 99.5, "unit": "%"},
      {"measurement": "plasma protein binding (% bound)", "setting": "[4]", "value": 98.7, "unit": "%"}
    ]},
    {"smiles": "Cc1cc(C#Cc2ccc(F)cc2)cnc1NC(=O)c1cc(NC(=O)OC(C)(C)C)ccc1Cl", "values": [
      {"measurement": "fraction unbound at 6 h, 5 µM", "setting": "[5]", "value": 0.994},
      {"measurement": "Cmax", "setting": "[6]", "value": 888, "unit": "nM"},
      {"measurement": "fraction unbound at 6 h, 5 µM", "setting": "[7]", "value": "> 0.999"},
      {"measurement": "AUC at 24 h", "setting": "[8]", "value": 2.27, "unit": "µM·h"},
      {"measurement": "AUC at 24 h", "setting": "[9]", "value": 12.3, "unit": "µM·h"},
      {"measurement": "Cmax", "setting": "[10]", "value": 252, "unit": "nM"}
    ]},
    {"smiles": "CC(C)(C)OC(=O)Nc1ccc(Cl)c(C(=O)Nc2ncc(C#Cc3ccccc3)cc2F)c1", "values": [
      {"measurement": "plasma protein binding (% bound)", "setting": "[3]", "value": 99.8, "unit": "%"},
      {"measurement": "plasma protein binding (% bound)", "setting": "[4]", "value": 98.9, "unit": "%"}
    ]}
  ]
}
